Measured values: patent publication US20230414599A1, “NICOTINAMIDE, NICOTINAMIDE PRECURSORS AND NICOTINAMIDE METABOLITES AND COMPOSITIONS THEREOF FOR REDUCING THE TIME TO RESOLUTION OF SYMPTOMS IN PATIENTS WITH COVID-19 AND OTHER VIRAL INFECTIONS” (CONARIS RESEARCH INSTITUTE AG, priority 2020, published 2023)
Like-named read-outs stand apart in the source and are kept apart here.

Tested on: COVID-19
Settings: for Cough complaint scale, mean / Cough complaint scale, median / Change in cough complaint scale, mean / Change in cough complaint scale, median: n = 36; for Ability to perform normal activities, complaint scale 0-6, mean change / Ability to perform normal activities, complaint scale 0-6, median change: week 4 - baseline
[1] = baseline, BMI ≥30.0 or type 2 diabetes, n = 27
[2] = baseline, current or former smokers, n = 75
[3] = baseline, patients with cough and fever, n = 15
[4] = baseline, patients with cough, n = 106
[5] = baseline, patients with fever, n = 21
[6] = baseline, ≥1 risk factor for severe COVID-19, n = 117
[7] = patients with cough and taste loss, baseline
[8] = patients with cough and taste loss, week 2
[9] = patients with cough and taste loss, week 2 - baseline
[10] = patients with cough and taste loss, week 4
[11] = patients with cough and taste loss, week 6
[12] = patients with cough and taste loss, week 6 - baseline
[13] = patients with cough, fever and taste loss, n = 6, week 4 compared to baseline
[14] = patients with cough, fever and taste loss, n = 6, week 6 compared to baseline
[15] = patients with fever and taste loss, n = 8, week 4 compared to baseline
[16] = patients with fever and taste loss, n = 8, week 6 compared to baseline
[17] = week 2 - baseline, BMI ≥30.0 or type 2 diabetes, n = 27, 500 mg IR + 500 mg CICR-NAM daily
[18] = week 2, BMI ≥30.0 or type 2 diabetes, n = 27, 500 mg IR + 500 mg CICR-NAM daily
[19] = week 2, current or former smokers, n = 75, 500 mg IR + 500 mg CICR-NAM daily
[20] = week 2, patients with cough and fever, n = 15, 500 mg IR + 500 mg CICR-NAM daily
[21] = week 2, patients with cough, n = 106, 500 mg IR + 500 mg CICR-NAM daily
[22] = week 2, patients with fever, n = 21, 500 mg IR + 500 mg CICR-NAM daily
[23] = week 2, ≥1 risk factor for severe COVID-19, n = 117, 500 mg IR + 500 mg CICR-NAM daily
[24] = BMI ≥30.0 or type 2 diabetes, n = 27, 500 mg IR + 500 mg CICR-NAM daily
[25] = patients with cough and fever, n = 15, 500 mg IR + 500 mg CICR-NAM daily
[26] = patients with cough, n = 106, 500 mg IR + 500 mg CICR-NAM daily
[27] = patients with fever, n = 21, 500 mg IR + 500 mg CICR-NAM daily
[28] = week 4, BMI ≥30.0 or type 2 diabetes, n = 27, 500 mg IR + 500 mg CICR-NAM daily
[29] = week 4, current or former smokers, n = 75, 500 mg IR + 500 mg CICR-NAM daily

## NC(=O)c1cccnc1 [Nicotinamide, nicotinamide]
[1]
  Ability to perform normal activities, complaint scale 0-6, mean: 3.037
  Ability to perform normal activities, complaint scale 0-6, median: 3.000
  Cough complaint scale 0-6, mean: 3.000
  Cough complaint scale 0-6, median: 3.000
[2]
  Ability to perform normal activities, complaint scale 0-6, mean: 3.373
  Ability to perform normal activities, complaint scale 0-6, median: 4.000
[3]
  Ability to perform normal activities, complaint scale 0-6, mean: 4.000
  Ability to perform normal activities, complaint scale 0-6, median: 4.0
[4]
  Ability to perform normal activities, complaint scale 0-6, mean: 2.915
  Ability to perform normal activities, complaint scale 0-6, median: 3.0
[5]
  Ability to perform normal activities, complaint scale 0-6, mean: 4.000
  Ability to perform normal activities, complaint scale 0-6, median: 4.0
[6]
  Ability to perform normal activities, complaint scale 0-6, mean: 3.188
  Ability to perform normal activities, complaint scale 0-6, median: 3.0
Patients with cough and taste loss
  Cough complaint scale vs placebo (Table 7.1): significant difference found in favour of placebo
[7]
  Cough complaint scale, mean: 2.194
  Cough complaint scale, median: 2.0
[8]
  Cough complaint scale, mean: 0.917
  Cough complaint scale, median: 0.0
[9]
  Change in cough complaint scale, mean: −1.287
  Change in cough complaint scale, median: −1.0
[10]
  Cough complaint scale, mean: 0.639
  Cough complaint scale, median: 0.0
[11]
  Cough complaint scale, mean: 0.417
  Cough complaint scale, median: 0.0
[12]
  Change in cough complaint scale, mean: −1.778
  Change in cough complaint scale, median: −2.0
[13]
  Change in fatigue: constant, number of patients: 1
  Change in fatigue: improved, %: 83.33%
  Change in fatigue: improved, number of patients: 5
  Change in fatigue: worse, %: 0.00%
  Change in fatigue: worse, number of patients: 0
[14]
  Change in fatigue: constant, number of patients: 2
  Change in fatigue: improved, %: 66.67%
  Change in fatigue: improved, number of patients: 4
  Change in fatigue: worse, %: 0.00%
  Change in fatigue: worse, number of patients: 0
[15]
  Change in fatigue: constant, number of patients: 1
  Change in fatigue: improved, %: 87.50%
  Change in fatigue: improved, number of patients: 7
  Change in fatigue: worse, %: 0.00%
  Change in fatigue: worse, number of patients: 0
[16]
  Change in fatigue: constant, number of patients: 2
  Change in fatigue: improved, %: 75.00%
  Change in fatigue: improved, number of patients: 6
  Change in fatigue: worse, %: 0.00%
  Change in fatigue: worse, number of patients: 0
Patients with ≥1 risk factor for severe COVID-19, futility analysis
  Effect on the ability to perform normal activities, fatigue and reduced physical performance: biologically and statistically significant positive effect
[17]
  Cough complaint scale 0-6, mean change: −1.815
  Cough complaint scale 0-6, median change: −2.000
[18]
  Ability to perform normal activities, complaint scale 0-6, mean: 1.556
  Ability to perform normal activities, complaint scale 0-6, median: 1.000
  Cough complaint scale 0-6, mean: 1.185
  Cough complaint scale 0-6, median: 1.000
[19]
  Ability to perform normal activities, complaint scale 0-6, mean: 1.093
  Ability to perform normal activities, complaint scale 0-6, median: 0.000
  Presence of cough constant vs baseline, % of patients: 60.00%
  Presence of cough constant vs baseline, patients: 45
  Presence of cough improved vs baseline, % of patients: 36.00%
  Presence of cough improved vs baseline, patients: 27
  Presence of cough worse vs baseline, % of patients: 4.00%
  Presence of cough worse vs baseline, patients: 3
[20]
  Ability to perform normal activities, complaint scale 0-6, mean: 1.733
  Ability to perform normal activities, complaint scale 0-6, median: 2.0
[21]
  Ability to perform normal activities, complaint scale 0-6, mean: 1.226
  Ability to perform normal activities, complaint scale 0-6, median: 1.0
[22]
  Ability to perform normal activities, complaint scale 0-6, mean: 1.381
  Ability to perform normal activities, complaint scale 0-6, median: 1.0
[23]
  Ability to perform normal activities, complaint scale 0-6, mean: 1.299
  Ability to perform normal activities, complaint scale 0-6, median: 1.0
  Fatigue constant vs baseline, % of patients: 57.26%
  Fatigue constant vs baseline, patients: 67
  Fatigue improved vs baseline, % of patients: 40.17%
  Fatigue improved vs baseline, patients: 47
  Fatigue worse vs baseline, % of patients: 2.56%
  Fatigue worse vs baseline, patients: 3
[24]
  Ability to perform normal activities, complaint scale 0-6, mean change: −1.667
  Ability to perform normal activities, complaint scale 0-6, median change: −2.000
[25]
  Ability to perform normal activities, complaint scale 0-6, mean change: −2.800
  Ability to perform normal activities, complaint scale 0-6, median change: −3.0
[26]
  Ability to perform normal activities, complaint scale 0-6, mean change: −2.179
  Ability to perform normal activities, complaint scale 0-6, median change: −2.0
[27]
  Ability to perform normal activities, complaint scale 0-6, mean change: −2.952
  Ability to perform normal activities, complaint scale 0-6, median change: −3.0
[28]
  Ability to perform normal activities constant vs baseline, % of patients: 14.81%
  Ability to perform normal activities constant vs baseline, patients: 4
  Ability to perform normal activities improved vs baseline, % of patients: 74.07%
  Ability to perform normal activities improved vs baseline, patients: 20
  Ability to perform normal activities worse vs baseline, % of patients: 11.11%
  Ability to perform normal activities worse vs baseline, patients: 3
  Ability to perform normal activities, complaint scale 0-6, mean: 1.370
  Ability to perform normal activities, complaint scale 0-6, median: 1.000
  Cough complaint scale 0-6, mean: 0.815
  Cough complaint scale 0-6, median: 0.000
[29]
  Ability to perform normal activities constant vs baseline, % of patients: 9.33%
  Ability to perform normal activities constant vs baseline, patients: 7
  Ability to perform normal activities improved vs baseline, % of patients: 84.00%
  Ability to perform normal activities improved vs baseline, patients: 63
